Data published in patent publication US8003137B2, “Extracts of Aristolochia paucinervis pomel and uses thereof” (FasTrack Pharmaceuticals, Inc., priority 2008, dated 2011).

Test system: human red blood cells
Assay: Hemolytic activity on heparinized whole blood
Format: cell-based
Conditions: 0- to 14-day incubation, all dilutions examined
Procedure: The hemolytic activity of A. paucinervis pomel extract on blood cells was examined, and compared with the ability of Triton-X to lyse these cells.
To perform these studies, heparinized-whole blood was incubated with dilutions of Triton-X-100 (0-1%) or 5× (4.4 mg/ml) A. paucinervis pomel extract for 40 minutes at room temperature. Plasma was collected after centrifugation at 1200×g for 5 minutes and diluted 1/20 with DPBS. The absorbance at 560 nm of 100 μl of each diluted plasma sample was measured. In a second experiment, the effects of incubating whole blood with dilutions of 5× (4.4 mg/ml) A. paucinervis pomel extract for 0, 3, 7 and 14 days was assessed. Experimental results are shown in FIG. 5A (cells treated with A. paucinervis pomel extract) and FIG. 5B (cells treated with Triton-X-100).

Triton-X
hemolytic activity on blood cells: toxic to blood cells
